From patent US12378261B2, “One-step, fast, 18F-19F isotopic exchange radiolabeling of difluoro-dioxaborinins and use of such compounds in treatment” (CORNELL UNIVERSITY, priority 2018, dated 2025)

Assays:
[1] = 19F NMR solvolytic stability of difluoro-dioxaborinins in water/DMSO; format: physicochemical; conditions: for Fold increase in stability (90% → 10% H2O): 10% water/DMSO vs 90% water/DMSO; for times more resistant to solvolysis than DK-1: 50 M H2O
Experimental: Radioactive TLC and […]/^19F NMR studies were used to determine the solvolytic stability of difluoro-dioxaborinins.
(§1) Some difluoro-dioxaborinins are insoluble in water; therefore, solvolytic studies on these compounds were determined in 10% H2O/90% DMSO (5.55 M H2O, deionized). To relate the effect of water concentration to solvolysis, solvolytic studies on all water-soluble difluoro-dioxaborinins (DK-1, DK-2, DK-3, DK-6 and DK-15) were performed twice: once in 10% H2O/90% DMSO (5.55 M H2O) (FIG. 2A), and again in 90% H2O/10% DMSO (50 M H2O) (FIG. 2B). Studies performed in 50 M H2O reflect physiologically appropriate conditions, and allow comparison to literature aryl/alkyl trifluoroborate and dipyrromethene solvolytic stability measurements.^11, 14 Characterization in solutions with reduced water content, 5.55 M H2O, allows comparison of solvolytic rate constants to those of less-soluble difluoro-dioxaborinins. Difluorodioxaborinins solvolysis is not observed in pure (100%) DMSO.
The coefficient of determination (R^2) in all ^19F NMR solvolysis data closely follows single, 2 parameter exponential decay regression (f=a*exp(−k*x), R2 >0.99 in 88% of experiments).

[2] = system: sentinel (popliteal) lymph node; test: Sentinel lymph node fluorescence imaging (IVIS) and histology in mouse; format: in vivo
Experimental: FIGS. 3A-F: Sentinel lymph node imaging using [^18F]-6F-Cur-BF2 according to the working examples. […] Distal lymph nodes (lumbar, iliac lymph nodes^30) are not observed. […] A 200 μCi dose of [^18F]-6F-Cur-BF2 and Magnevist (MRI contrast agent) were injected into the right rear paw of […]. The injection site (bottom arrow) and sentinel lymph node (popliteal, upper arrows) are visible at 5 min. FIGS. 3D-3F show popliteal (sentinel) lymph node imaging 2 hours post injection into the back paw with a Pre-Clinical IVIS. Optical/Computed Tomography In Vivo Imaging System (Excitation filter centered at 430 nm and emission filter centered at 520 nm. Exposure time=1 s). […] White arrows in FIGS. 3D-3F indicate the lymph nodes.
FIG. 5 provides the histology of the collected lymph node from the mouse in FIG. 4A. The mouse lymph node was collected at 2 hours post injection into the right, rear footpad. The collected lymph node was frozen with OCT Gel and cut with a thickness of […]. The slice was, imaged with fluorescence microscope at the channel of 6F-Cur-BF2.
Applicant attempted sentinel lymph node imaging with [^18F]-6FCur-BF2 by fluorescence with 430 nm excitation and 520 nm emission filters. […] The collected lymph node is confirmed in histology.

[3] = Optical properties (absorbance, fluorescence emission, quantum yield); format: physicochemical; conditions: for Quantum yield: Methanol
[4] = Solubility in water (50 M H2O); format: physicochemical; conditions: 50 M H2O (90% H2O/10% DMSO)
Experimental: as §1
Solvolysis is promoted by extending difluorodioxaborinin π-conjugation using moderately electron poor or electron-neutral substituents (DK-13 and DK-14). To evaluate the effect of extending the difluoro-dioxaborinin 4,5,6 π-system on solvolysis, compounds that bear extended π-conjugation through the difluoro-dioxaborinin moiety (positions 4, 5, and 6) were synthesized. ^19F NMR solvolytic measurements were performed only in 5.55 M H2O, as DK-13 and DK-14 are insoluble in 50 M H2O.

[5] = system: HeLa; test: Inhibition of cell proliferation (IC50, MTS); format: cell-based
Experimental: (§2) As shown in FIGS. 11A-11E, cell viability as a function of Curcumin-BF2 concentration was evaluated for each of the cell lines in Example 5, showing the compounds of the present technology are effective in inhibiting cancer cell proliferation.

[6] = system: MCF-7; test: Inhibition of cell proliferation (IC50, MTS); format: cell-based
Experimental: as §2

[7] = system: A549; test: Inhibition of cell proliferation (IC50, MTS); format: cell-based
Experimental: as §2

[8] = system: HCT116; test: Inhibition of cell proliferation (IC50, MTS); format: cell-based
Experimental: as §2

[9] = system: MDA-MB-231; test: Inhibition of cell proliferation (IC50, MTS); format: cell-based
Experimental: as §2

[10] = system: sentinel nodes; conditions: non-targeted fluorescent contrasts, literature; cited from earlier work

| SMILES | fold slower solvolysis (more stable) than DK-1 ([1]; 5.55 M H2O) | Abs [3] [nm] | Em [3] [nm] | Extinction Coefficient [3] | Stokes Shift [3] [nm] | Quantum yield [3] [%] | solubility in water [4] | Fold increase in stability (90% → 10% H2O) [1] | other results |
| --- | --- | --- | --- | --- | --- | --- | --- | --- | --- |
| COc1cc(/C=C/C2=CC(/C=C/c3ccc(OC(=O)c4c(F)cc(F)cc4F)c(OC)c3)=[O+][B-](F)(F)O2)ccc1OC(=O)c1c(F)cc(F)cc1F [6F-Cur-BF2] | 1.6 | 430 | 512 | 50,800 cm^−1M^−1 | 82 | 3.0 |  |  | fold more rapid solvolysis than Cur-BF2 ([1]; 5.55 M H2O): 33; fluorescence in collected lymph node (histology) ([2]; mouse lymph node collected 2 hours post injection): observed in the lymph node; sentinel node visualization by fluorescence through the skin ([2]; mouse, 430 nm excitation, 520 nm emission filters, 2 hours post injection): the sentinel node is difficult to visualize through the skin |
| COc1cc(/C=C/C2=CC(/C=C/c3ccc(OC(=O)CCN4C(=O)C=CC4=O)c(OC)c3)=[O+][B-](F)(F)O2)ccc1OC(=O)CCN1C(=O)C=CC1=O [Cur-BF2-2Mal] | 2.1 | 434 | 509 | 54,000 cm^−1M^−1 | 75 | 3.1 |  |  | fold more rapid solvolysis than Cur-BF2 ([1]; 5.55 M H2O): 24 |
| COc1cc(/C=C/C2=CC(/C=C/c3ccc(O)c(OC)c3)=[O+][B-](F)(F)O2)ccc1O [Cur-BF2] |  | 500 | 571 | 73,000 cm^−1M^−1 |  |  | insoluble |  | IC50 ([5]; 24 h): 5.4 ± 0.4 µM; IC50 ([5]; 48 h): 4.2 ± 0.2 µM; IC50 ([6]; MCF-7, 24 h): 10 ± 4 µM; IC50 ([6]; MCF-7, 48 h): 4.8 ± 0.2 µM; IC50 ([7]; A549, 24 h): 27 ± 3 µM; IC50 ([7]; A549, 48 h): 5.5 ± 0.3 µM; IC50 ([8]; HCT116, 24 h): 3.31 ± 0.04 µM; IC50 ([8]; HCT116, 48 h): 4.3 ± 0.2 µM; IC50 ([9]; MDA-MB-231, 24 h): 11 ± 1 µM; IC50 ([9]; MDA-MB-231, 48 h): 6 ± 1 µM |
| COc1cc(/C=C/C(=O)CC(=O)/C=C/c2ccc(O)c(OC)c2)ccc1O [Curcumin, reference compound] |  | 434 | 535 | 56,500 cm^−1M^−1 | 101 | 2.4 |  |  | IC50 ([5]; Homo sapiens, 24 h): 16 ± 3 µM; IC50 ([5]; Homo sapiens, 48 h): 19 ± 6 µM; IC50 ([6]; Homo sapiens, MCF7, MCF-7, 24 h): 27 ± 8 µM; IC50 ([6]; Homo sapiens, MCF7, MCF-7, 48 h): 35 ± 3 µM; IC50 ([7]; Homo sapiens, A549, 24 h): 50 ± 4 µM; IC50 ([7]; Homo sapiens, A549, 48 h): 25 ± 1 µM; IC50 ([8]; Homo sapiens, HCT-116, HCT116, 24 h): 27 ± 5 µM; IC50 ([8]; Homo sapiens, HCT-116, HCT116, 48 h): 16 ± 2 µM; IC50 ([9]; Homo sapiens, MDA-MB-231, 24 h): 32 ± 13 µM; IC50 ([9]; Homo sapiens, MDA-MB-231, 48 h): 26 ± 6 µM |
| CC1=CC(C)=[O+][B-](F)(F)O1 [DK-1] |  | 279 | 305 | 9,180 cm^−1M^−1 | 26 |  | water-soluble | ~2.8 | solvolysis rate constant, k ([1]; 50 M H2O (90% water, 10% DMSO)): 0.254 ± 0.002 h⁻¹; solvolysis in absence of water ([1]; 100% DMSO): not observed; fraction decomposed ([1]; […] (one fluoride-18 half-life), from rate constant at 50 M H2O): 37% |
| CC1=[O+][B-](F)(F)OC(C)=C1C [DK-2] |  | 303 | 307 | 12,200 cm^−1M^−1 | 4 |  | water-soluble | 3.2 | times more resistant to solvolysis than DK-1 [1]: 6.2 |
| CCC1=C(C)O[B-](F)(F)[O+]=C1C [DK-3] |  | 303 | 306 | 12,000 cm^−1M^−1 | 3 |  | water-soluble | 3.5 | times more resistant to solvolysis than DK-1 [1]: 5.6 |
| CCOC(=O)CCC1=C(C)O[B-](F)(F)[O+]=C1C [DK-6] |  | 301 | 307 | 12,600 cm^−1M^−1 | 6 |  | water-soluble | 4.7 | times more resistant to solvolysis than DK-1 [1]: 1.9 |
| F[B-]1(F)OC(c2ccccc2)=CC(c2ccccc2)=[O+]1 [DK-13] | 1.4 | 363 | 413 | 38,000 cm^−1M^−1 | 50 | 11.2 | insoluble |  | times more rapid solvolysis than DK-2 ([1]; 5.55 M H2O): 5.0 |
| CC1=CC(c2ccccc2)=[O+][B-](F)(F)O1 [DK-14] |  | 325 | 328 | 19,800 cm^−1M^−1 | 3 |  | insoluble |  | fold more rapid solvolysis than DK-1 ([1]; 5.55 M H2O): 1.7 |
| CC1=C2CCCCC2=[O+][B-](F)(F)O1 [DK-15] |  | 303 | 307 | 12,000 cm^−1M^−1 | 4 |  | water-soluble | 5.0 | times more resistant to solvolysis than DK-1 [1]: 2.5 |
| COc1ccc(C2=CC(c3ccc(C(C)(C)C)cc3)=[O+][B-](F)(F)O2)cc1 [DK-16] | 15 | 400 | 439 | 62,000 cm^−1M^−1 | 39 | 67.3 | insoluble |  | fold slower solvolysis than DK-2 ([1]; 5.55 M H2O): 2.2 |
| COc1ccc(C2=CC(c3ccc(OC)cc3)=[O+][B-](F)(F)O2)cc1 [DK-17] | 16 | 408 | 438 | 63,600 cm^−1M^−1 | 30 | 65.8 | insoluble |  | fold slower solvolysis than DK-2 ([1]; 5.55 M H2O): 2.3 |
| CC1(C)C(/C=C/C=C/C=C/C=C2\N(CCCCS(=O)(=O)O)c3ccc4ccccc4c3C2(C)C)=[N+](CCCCS(=O)(=O)[O-])c2ccc3ccccc3c21 [indocyanine green] |  |  |  |  |  |  |  |  | behaviour in sentinel node mapping [10]: travel through sentinel nodes to delineate multiple non-sentinel nodes |
| CCN(CC)c1ccc(C(=C2C=CC(=[N+](CC)CC)C=C2)c2cc(S(=O)(=O)[O-])ccc2S(=O)(=O)[O-])cc1.[Na+] [lymphazurin, isosulfan blue] |  |  |  |  |  |  |  |  | behaviour in sentinel node mapping [10]: travel through sentinel nodes to delineate multiple non-sentinel nodes |
